According to PMC4549746, “Zearalenone in the Intestinal Tissues of Immature Gilts Exposed per os to Mycotoxins” (Toxins, 2015):
Read-outs that look alike come from different tables or passages of the source.

What was measured:
[1] = Average daily gains and feed conversion of gilts during 42-day per os exposure; format: in vivo
Experimental: The animals were divided into an experimental group (E, n = 18) and a control group (C, n = 21). Group E animals were orally administered ZEN at 40 μg/kg BW. Group C pigs were fed a placebo. The animals were fed complete diets in a restricted feeding regimen (Table 1). The daily dose of ZEN (40 µg/kg BW) was administered to each animal individually, which corresponds to exposure to 957–1014 µg ZEN/kg of a complete diet, depending on daily feed intake. Zearalenone was biosynthesized, purified and standardized by the Department of Chemistry of the Poznań University of Life Sciences. The experiment covered a period of 42 days. The mycotoxin was administered per os daily, in gelatine capsules before the morning feeding. The ZEN dose was adjusted to the body weight of the experimental animals. The mycotoxin was administered in capsules to prevent problems associated with uneven feed intake. Mycotoxin samples were diluted in 300 μL of 96% ethyl alcohol (96% ethyl alcohol, SWW 2442-90, Polskie Odczynniki Chemiczne SA, Gliwice, Poland) to the required dose level (based on body weight). Final solutions were stored at room temperature for 12 h to evaporate the solvent. The animals were weighed every 7 days to update mycotoxin doses for each gilt. Three animals from the experimental group and the control group each were sacrificed on Days 1, 7, 14, 21, 28, 35 and 42 (a total of 6 gilts in each week of exposure), excluding day 1, when only 3 control group animals were scarified. Every week, tissue samples were collected from the porcine gastrointestinal tract (duodenum, first and middle sections, jejunum, ileum, cecum, ascending colon, transverse colon, descending colon, middle section, and the liver, left lobe). Tissue samples were collected from the whole intestinal cross-sections.

[2] = set-up: method as in PMID 15972077; settings: animal feed naturally contaminated with ZEN and α-ZEL; cited from earlier work
[3] = in vitro studies, cited from earlier work
[4] = Group E, ZEN 40 μg/kg BW daily per os, throughout the experiment (42 days)

C[C@H]1CCCC(=O)CCC/C=C/c2cc(O)cc(O)c2C(=O)O1 [ZEN, zearalenone]
differences in average daily gains between groups ([1]; Group E (ZEN 40 μg/kg BW daily per os) vs Group C (placebo)): No significant differences | average daily gains [1, 4]: 602 g | feed per kg of BW gain [1, 4]: 2.61 kg feed per kg of BW gain | absorbed from the duodenum [2]: 65% | ingested ZEN absorbed in the small intestine ([3]; ref 12): 55% | ingested ZEN absorbed in the small intestine ([3]; ref 26): 51%
